Earlier results, collected in US5472628A, “Liquid detergents with an aryl acid for inhibition of proteolytic enzyme” (The Procter & Gamble Company, priority 1994, dated 1995).

Target: subtilisin
Settings: quoted in the description, read-out: Ki (inhibition constants of boronic acids for subtilisin)

Which Ki does the source give for `OB(O)c1ccc(Br)cc1` [4-bromobenzene boronic acid] here?
Its Ki is 10 µM.
